Earlier results on one compound are cited in paper PMC9516332 (Frontiers in Oncology, 2022).

What all share (settings): cited from earlier work
Data set [1] deals with panel of 255 wild-type kinases (Homo sapiens, UniProt Q16816).
Data set [2] deals with T1, panel of 255 wild-type kinases (Homo sapiens, UniProt O15146).
T1 sequence (O15146 24-869): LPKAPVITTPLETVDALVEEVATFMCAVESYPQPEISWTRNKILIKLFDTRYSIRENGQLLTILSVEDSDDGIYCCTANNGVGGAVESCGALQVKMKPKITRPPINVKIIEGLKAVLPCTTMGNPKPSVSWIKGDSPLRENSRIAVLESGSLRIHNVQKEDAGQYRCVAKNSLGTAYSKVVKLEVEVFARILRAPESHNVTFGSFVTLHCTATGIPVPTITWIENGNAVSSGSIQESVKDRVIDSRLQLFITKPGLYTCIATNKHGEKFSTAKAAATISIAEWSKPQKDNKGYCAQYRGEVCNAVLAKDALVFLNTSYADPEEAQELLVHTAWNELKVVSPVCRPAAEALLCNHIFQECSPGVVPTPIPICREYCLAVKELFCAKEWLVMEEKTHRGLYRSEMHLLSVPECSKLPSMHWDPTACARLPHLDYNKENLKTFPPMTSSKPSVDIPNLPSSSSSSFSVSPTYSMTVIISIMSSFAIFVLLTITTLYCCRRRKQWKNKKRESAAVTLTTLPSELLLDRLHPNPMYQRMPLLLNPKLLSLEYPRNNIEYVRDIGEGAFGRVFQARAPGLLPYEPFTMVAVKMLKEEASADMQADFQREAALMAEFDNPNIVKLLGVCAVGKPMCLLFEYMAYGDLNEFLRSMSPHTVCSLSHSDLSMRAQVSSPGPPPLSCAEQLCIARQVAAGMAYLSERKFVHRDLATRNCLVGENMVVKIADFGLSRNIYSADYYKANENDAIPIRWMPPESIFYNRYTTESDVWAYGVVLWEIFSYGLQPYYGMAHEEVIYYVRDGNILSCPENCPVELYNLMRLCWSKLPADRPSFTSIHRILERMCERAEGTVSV

The target in data set [3] is panel of 255 wild-type kinases (Homo sapiens, UniProt P53355).
The target in data set [4] is panel of 255 wild-type kinases (Homo sapiens, UniProt P42684).
Data set [5] has as its target panel of 255 wild-type kinases (Homo sapiens, UniProt P21802).
Data set [6] addresses T2, panel of 255 wild-type kinases (Homo sapiens, UniProt Q9NRM7).
T2 sequence (Q9NRM7 1-1088): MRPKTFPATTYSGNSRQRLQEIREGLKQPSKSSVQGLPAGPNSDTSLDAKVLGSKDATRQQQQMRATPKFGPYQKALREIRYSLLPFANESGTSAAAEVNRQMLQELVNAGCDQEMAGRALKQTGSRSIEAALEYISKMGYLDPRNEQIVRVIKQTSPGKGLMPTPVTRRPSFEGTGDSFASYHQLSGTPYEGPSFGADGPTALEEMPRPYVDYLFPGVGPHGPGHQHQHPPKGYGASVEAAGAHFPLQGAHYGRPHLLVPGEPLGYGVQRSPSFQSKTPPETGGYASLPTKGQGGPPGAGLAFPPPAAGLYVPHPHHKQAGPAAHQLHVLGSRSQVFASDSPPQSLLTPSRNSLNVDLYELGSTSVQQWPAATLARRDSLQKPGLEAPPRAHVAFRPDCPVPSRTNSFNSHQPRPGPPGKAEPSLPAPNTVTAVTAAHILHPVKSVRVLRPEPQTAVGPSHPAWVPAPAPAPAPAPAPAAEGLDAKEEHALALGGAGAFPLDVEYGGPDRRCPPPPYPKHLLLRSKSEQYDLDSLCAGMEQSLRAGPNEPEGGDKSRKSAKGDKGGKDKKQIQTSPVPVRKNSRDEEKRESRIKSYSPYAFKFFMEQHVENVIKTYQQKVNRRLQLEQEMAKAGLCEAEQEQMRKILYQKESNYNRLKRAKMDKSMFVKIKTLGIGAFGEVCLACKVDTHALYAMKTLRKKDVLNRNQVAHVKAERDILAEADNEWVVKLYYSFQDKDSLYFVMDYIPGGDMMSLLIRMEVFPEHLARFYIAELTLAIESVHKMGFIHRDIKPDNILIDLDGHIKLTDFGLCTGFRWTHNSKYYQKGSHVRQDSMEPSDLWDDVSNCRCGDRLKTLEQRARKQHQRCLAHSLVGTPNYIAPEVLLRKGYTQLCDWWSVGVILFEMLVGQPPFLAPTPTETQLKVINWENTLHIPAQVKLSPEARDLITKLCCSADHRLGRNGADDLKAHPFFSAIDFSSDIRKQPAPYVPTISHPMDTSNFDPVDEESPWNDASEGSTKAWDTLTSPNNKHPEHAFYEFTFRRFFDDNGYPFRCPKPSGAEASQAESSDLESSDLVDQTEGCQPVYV

The target in data set [7] is panel of 255 wild-type kinases (Homo sapiens, UniProt P27361).

On to `COc1cc(N2CCC(N3CCN(C)CC3)CC2)ccc1Nc1ncc(Cl)c(Nc2ccccc2P(C)(C)=O)n1` [brigatinib], for which the “%-inhibition at 1 µmol/L, PHKG1” value in data set [1] is listed as 96%. In addition, the “%-inhibition, MUSK” value in data set [2] was 82%. In addition, in data set [3], the “%-inhibition at 1 µmol/L, DAPK1” value is 83%. In addition, the “%-inhibition ARG” value in data set [4] is recorded as 55%. In data set [5], the “%-inhibition at 1 µmol/L, FGFR2” value is 97%. For the same compound, the “%-inhibition at 1 µmol/L, LATS2” value in data set [6] was 49%. Besides, the “%-inhibition at 1 µmol/L, Erk1” value in data set [7] is on record as 3.68%.
